Where two headings read alike, the source gives them in different places.
What was measured:
[1] = tested on: P388 cells; assay: Growth inhibition in vitro, P388 leukaemia; assay type: cell-based, murine; settings: P388 cells, 72 h, MTT, read-out: IC50
Protocol: (§1) Representative examples of compounds of the invention were tested for biological activity against tumors. Compounds 1 to 6 and 14 to 21, prepared as described above, were tested for their ability to inhibit growth in vitro of cells of the wild-type murine leukaemia cell line P388, and the cell line AA8 which is derived from Chinese hamster ovary cells. For each compound, the IC50, ie. the concentration of compound which inhibited cell growth in treated cultures to 50% of that of controls, was determined, using means of three determinations. In addition, a hypersensitivity factor was determined by comparing activity of the compounds against AA8 cells to activity against UV4. The latter cell line is deficient in aspects of the excision repair pathway for removing DNA adducts, and is hypersensitive to DNA-alkylating agents, especially interstrand crosslinking agents. Previous work has shown that the ratio of IC50 s determined in the wild-type AA8 and mutant UV4 lines (the hypersensitivity factor HF) is a determinant of the mode of cell killing by alkylating agents (Palmer, B. D. et al, J. Med. Chem., 1990 33 112-121; Wilson, W. R. et al, J. Med. Chem., 1989 32 31-38). Compounds with HFs of ca. 1 are unlikely to kill cells via DNA alkylation events. Compounds which show high HF values are likely to form bulky adducts or cross-links,with the latter being especially likely for compounds showing the highest HF values (>ca. 25) (Wilson et al, op. cit.).
(§2) Cell lines were maintained in exponential growth phase by subculturing in RPMI 1640 (P338) or Alpha MEM (AA8, UV4) containing 10% fetal calf serum, as previously described (Palmer et al, op.cit.; Baguley, B. C. and Wilson, W. R., Eur. J. Cancer Clin. Oncol., 1987 23 607-613). IC50 values were determined using log-phase cultures in 96-well microculture plates, and were calculated as the nominal drug concentration required to reduce the cell density to 50% of control values, using 8 control cultures on each microplate. For P388 cultures, drug was present throughout the growth period (72 h), and final cell densities were determined using a minor modification of the MTT method of Mossman (Mossman, T., J. Immunol. Methods, 1983 65 55-63). For AA8 and UV4 cultures, drug exposure was terminated after 18 h by washing three times with fresh medium. Cultures were then grown for a further 72 h before determining cell density by staining with methylene blue (Finlay, G. J. et al, Anal. Biochem., 1984 139 272-277).

[2] = tested on: P338 murine leukaemia; assay type: in vivo, mice; settings: for in vivo antitumour activity: P388, single-dose protocol
[3] = tested on: L1210 leukemia; settings: repeated dose schedule; cited from earlier work
[4] = tested on: S. typhimurium TA102; assay: Bacterial mutagenicity, plate incorporation assay, TA102; settings: mean ± SD
[5] = tested on: S. typhimurium TA100; assay: Bacterial mutagenicity, plate incorporation assay, TA100; settings: for reversion colonies, TA100: mean ± SD
[6] = tested on: AA8 and UV4 cells; assay: Hypersensitivity factor (AA8/UV4 IC50 ratio); assay type: cell-based, Chinese hamster; settings: ratio of IC50s AA8/UV4
Protocol: as §1, §2

[7] = tested on: S. typhimurium TA98; assay: Bacterial mutagenicity, plate incorporation assay, TA98; settings: mean ± SD
[8] = tested on: AA8 cells; assay: Growth inhibition in vitro, AA8; assay type: cell-based, Chinese hamster
Protocol: as §1, §2

[9] = tested on: solid tumour lines; settings: other studies; cited from earlier work
[10] = tested on: DNA minor groove; settings: background; cited from earlier work
[11] = tested on: Saccharomyces cerevisiae strain D5
[12] = tested on: calf thymus DNA; assay: Reversible DNA binding by spectrophotometric Scatchard analysis; settings: 20° C., 0.01M HEPES buffer, pH 7.00
[13] = tested on: linearized pSV2gpt DNA; assay: DNA crosslinking assay (agarose gel electrophoresis of linearized plasmid); assay type: biochemical; settings: 2 h at 30° C., TE-80 buffer pH 8
Protocol: The ability of representative compounds of the invention to bind to and cross-link DNA was examined. This was carried out by agarose gel electrophoresis of plasmid DNA using linearized pSV2gpt DNA (Tindall, K. R. and Stankowski, L. F.; Mutation Research, 1989 220 241-245) and the method reported by Valu et al, 1990, op.cit. Briefly, linearized pSV2gpt DNA (1 μL of a 1 mg/mL solution) was incubated with drug in TE-80 buffer (10 mM Tris.HCl, 1 mM EDTA at pH 8), shielded from ambient light, for 2 h at 30° C., then denatured by the addition of […] of 1% sodium dodecyl sulfate and 10 μL of 50 mM methylmercury hydroxide and incubated for a further 30 min at 20° C. in the dark. Renaturation of drug-treated DNA samples was carried out by incubation with 2.5 μL of 2-mercaptoethanol for 1 h. Samples were prepared for electrophoresis by the addition of 0.1 mg/mL bromophenol blue, 0.5 μg/mL ethidium bromide and 5 μL of 40% sucrose. Electrophoresis was carried out at 120V in 89 mM tris/borate buffer at pH 8 containing 2 mM EDTA and 0.5 μg/mL ethidium bromide. DNA was visualized using 302 nm trans-illumination, and was photographed using Polaroid type 55 film and a Wratten 3A filter.
After drug treatment, DNA is denatured to the single stranded form, which runs as a lower band in the gels (see lanes 1 and 2 in FIG. 1). Cross-linking by the drugs is evidenced by the appearance of increasing amounts of renatured, double stranded DNA, as shown by the upper band in the gels, corresponding to the band for untreated DNA seen in lane 1.

[14] = tested on: S. typhimurium strains
[15] = tested on: calf thymus DNA; assay: Rate of alkylation of calf thymus DNA by increase in DNA-bound fluorescence; assay type: biochemical; set-up: unit not given here
[16] = 80 μg/plate, square brackets: toxicity becoming apparent

SMILES	in vivo antitumour activity [2]	reversion colonies, TA102 ([4]; 4 μg/plate)	reversion colonies, TA102 ([4]; 10 μg/plate)	reversion colonies, TA102 ([4]; 20 μg/plate)	reversion colonies, TA100 ([5]; 4 μg/plate)	reversion colonies, TA100 ([5]; 10 μg/plate)	reversion colonies, TA100 ([5]; 20 μg/plate)	reversion colonies, TA100 ([5]; 40 μg/plate)	reversion colonies, TA100 ([5]; 80 μg/plate)	Hypersensitivity factor [6]	reversion colonies, TA98 ([7]; 4 μg/plate)	reversion colonies, TA98 ([7]; 10 μg/plate)	reversion colonies, TA98 ([7]; 20 μg/plate)	reversion colonies, TA98 ([7]; 40 μg/plate)	reversion colonies, TA98 [7, 16]	petite (mitochondrial) mutagenesis [11]	Site size (Number of nucleotide residues) [12] [nucleotide residues]	further results
CN1CCN(c2ccc3nc(-c4ccc5nc(-c6ccc(O)cc6)[nH]c5c4)[nH]c3c2)CC1 [Pibenzimol, reference compound]	not active against P388 using the single-dose protocol	275 ± 12	277 ± 1	301 ± 3	188 ± 11	191 ± 7	179 ± 6	168 ± 13	178 ± 11	about unity	59 ± 3	64 ± 8	55 ± 6	61 ± 5	62 ± 9	not active in this system	2.4	IC50 ([1]; Mus musculus): ~1000 nM; in vivo activity against L1210 leukemia [3]: moderate in vivo activity; reversion colonies, TA102 ([4]; 40 μg/plate, square brackets: toxicity becoming apparent): 377 ± 49; reversion colonies, TA102 [4, 16]: 397 ± 10; mutagenicity in TA100 ([5]; statistical analysis): no statistically significant mutagenic response in TA100; activity against the AA8 cell line ([8]; compared with P388, shorter exposure time): much less active; cytotoxicity in solid tumour lines [9]: very low cytotoxicity; binding to DNA minor groove [10]: binds to regions of the minor groove rich in adenine and thymine bases
CN1CCN(c2ccc3nc(-c4ccc5nc(-c6ccc(N(CCCl)CCCl)cc6)[nH]c5c4)[nH]c3c2)CC1 [Compound 2, 2-[2-[4-(N,N-bis(2-chloroethyl)amino)phenyl]-5-benzimidazolyl]-5-(1-methyl-4-piperazinyl)benzimidazole]	highest activity	408 ± 31	371 ± 14	280 ± 14	173 ± 7	175 ± 17	167 ± 28	210 ± 20	192 ± 1	24	61 ± 3	68 ± 2	58 ± 1	52 ± 7	55 ± 2	inactive	2.6	IC50 [1]: 800 nM; Optimal dose ([2]; single i.p. dose): 30 mg/kg; % Increase in lifespan ([2]; single i.p. dose 24 h after tumour inoculation, at optimal dose (mg/kg: 1 30; 2 30; 3 13.3; 4 3.9; 5 5.9; 6 8.9)): 106%; average number of animals in a group of six which were long-term survivors ([2]; single i.p. dose, optimal dose, group of six): 2 animals; Cross-linking [13]: No; bacterial mutagenicity [14]: inactive as a bacterial mutagen; Rate constant for alkylation [15]: 1.78 × 10^4; IC50 ([8]; AA8 cells, 18 h exposure, then 72 h growth, methylene blue, read-out: IC50): 1680 nM

Reference: US5968933A, “DNA-targeted alkylating agents” (Auckland Division Cancer Society of New Zealand Inc., priority 1994, dated 1999)
